Among the data in publication PMC8645336, “Benchmarking a highly selective USP30 inhibitor for enhancement of mitophagy and pexophagy” (Life Science Alliance, 2021) are remaining activity values, retold here.

One test deals with T1, USP35** (Homo sapiens, UniProt Q9P2H5).
T1 sequence (Q9P2H5 1-1018): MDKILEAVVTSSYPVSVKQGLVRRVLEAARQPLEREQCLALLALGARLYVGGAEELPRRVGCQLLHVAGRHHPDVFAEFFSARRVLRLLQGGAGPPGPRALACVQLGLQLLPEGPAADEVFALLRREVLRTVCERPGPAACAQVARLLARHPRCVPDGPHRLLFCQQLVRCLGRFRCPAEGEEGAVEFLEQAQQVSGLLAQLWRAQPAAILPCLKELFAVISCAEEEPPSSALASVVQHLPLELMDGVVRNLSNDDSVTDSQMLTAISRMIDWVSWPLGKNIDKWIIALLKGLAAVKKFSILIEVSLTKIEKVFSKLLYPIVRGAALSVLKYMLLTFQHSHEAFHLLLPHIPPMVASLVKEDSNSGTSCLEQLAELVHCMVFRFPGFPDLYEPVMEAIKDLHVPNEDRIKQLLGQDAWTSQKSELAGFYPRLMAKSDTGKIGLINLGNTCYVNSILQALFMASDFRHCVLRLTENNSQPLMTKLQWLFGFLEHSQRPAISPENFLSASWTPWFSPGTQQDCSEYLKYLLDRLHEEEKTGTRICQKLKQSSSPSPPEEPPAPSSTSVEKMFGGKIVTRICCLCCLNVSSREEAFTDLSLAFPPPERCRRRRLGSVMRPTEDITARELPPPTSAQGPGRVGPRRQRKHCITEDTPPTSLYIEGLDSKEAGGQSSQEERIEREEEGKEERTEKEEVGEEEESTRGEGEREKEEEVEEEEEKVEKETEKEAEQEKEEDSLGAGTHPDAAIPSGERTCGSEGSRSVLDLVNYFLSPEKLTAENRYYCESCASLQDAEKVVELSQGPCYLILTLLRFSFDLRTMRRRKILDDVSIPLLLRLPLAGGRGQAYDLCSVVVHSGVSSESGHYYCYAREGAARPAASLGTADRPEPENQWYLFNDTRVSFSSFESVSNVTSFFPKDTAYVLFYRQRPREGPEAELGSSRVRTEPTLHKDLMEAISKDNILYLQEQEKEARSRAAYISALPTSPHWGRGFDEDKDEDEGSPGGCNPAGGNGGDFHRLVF
As to the kind of experiment: biochemical. More on the design: Ubiquigent DUB profiler selectivity panel, remaining enzyme activity as % of control. The following applies: read-out: % of control remaining. In a few lines: (§1)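 CMPD-39 selectivity was profiled at 1-100 μM across >40 DUBs. Cellular engagement used 2 h CMPD-39 pretreatment, then HA-Ub-PA probe for 10 min at 37°C, with USP30 band shift on immunoblot. TOMM20 ubiquitylation was blotted in YFP-PRKN hTERT-RPE1 cells after 1 h antimycin A/oligomycin A (1 μM each).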

For the next test, the target named is T2, USP25 (Homo sapiens, UniProt Q9UHP3).
T2 sequence (Q9UHP3 1-1055): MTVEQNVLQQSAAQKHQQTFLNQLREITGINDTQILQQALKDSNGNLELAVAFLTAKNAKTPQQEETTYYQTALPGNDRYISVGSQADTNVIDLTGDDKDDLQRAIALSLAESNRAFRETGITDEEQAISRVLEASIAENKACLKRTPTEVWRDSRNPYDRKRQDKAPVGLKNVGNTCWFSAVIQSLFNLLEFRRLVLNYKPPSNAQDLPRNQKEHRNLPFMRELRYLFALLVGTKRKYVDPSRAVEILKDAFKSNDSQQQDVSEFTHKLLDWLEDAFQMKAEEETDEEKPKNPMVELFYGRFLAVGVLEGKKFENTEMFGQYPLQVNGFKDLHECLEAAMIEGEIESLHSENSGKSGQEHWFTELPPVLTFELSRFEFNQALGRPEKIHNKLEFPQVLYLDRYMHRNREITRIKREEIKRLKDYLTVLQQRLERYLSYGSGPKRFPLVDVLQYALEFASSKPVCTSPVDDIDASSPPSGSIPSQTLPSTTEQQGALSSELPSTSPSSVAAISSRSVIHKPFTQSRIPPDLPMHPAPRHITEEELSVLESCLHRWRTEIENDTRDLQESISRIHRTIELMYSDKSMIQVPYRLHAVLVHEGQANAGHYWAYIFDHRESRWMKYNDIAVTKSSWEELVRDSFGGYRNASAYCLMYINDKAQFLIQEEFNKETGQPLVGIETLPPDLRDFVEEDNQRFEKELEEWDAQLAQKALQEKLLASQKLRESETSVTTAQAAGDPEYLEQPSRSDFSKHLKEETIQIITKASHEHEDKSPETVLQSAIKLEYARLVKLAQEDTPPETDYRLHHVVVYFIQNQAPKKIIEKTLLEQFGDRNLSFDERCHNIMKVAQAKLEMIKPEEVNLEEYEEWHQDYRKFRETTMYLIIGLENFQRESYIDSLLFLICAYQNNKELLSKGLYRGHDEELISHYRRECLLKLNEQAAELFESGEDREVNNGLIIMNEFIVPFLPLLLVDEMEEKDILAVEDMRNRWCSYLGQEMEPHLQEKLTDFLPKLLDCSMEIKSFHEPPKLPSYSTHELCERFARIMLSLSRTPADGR
As to the kind of experiment: biochemical. More on the design: Ubiquigent DUB profiler selectivity panel, remaining enzyme activity as % of control. As to conditions: read-out: % of control remaining. The method, boiled down: as §1

Structures are written as SMILES.

For `CC(C)(C)NS(=O)(=O)c1ccc(NC(=O)[C@H](Cc2ccccc2)NC(=O)c2ccc(F)cc2)cc1` [compound 39, CMPD-39], at USP35**, the remaining activity at 1 µM was 113%, the remaining activity at 10 µM was determined as 101% and the remaining activity at 100 µM is 102%. Moreover, at USP25, the remaining activity at 1 µM is 103%, the remaining activity at 10 µM came out at 94.5% and the remaining activity at 100 µM is 103%.
